The results in this text go back to patent US9776972B2, “Pyrazole derivatives as arginine methyltransferase inhibitors and uses thereof” (priority 2013, dated 2017).

One experiment deals with T1, human PRMT1 (Homo sapiens, UniProt Q99873).
T1 construct: GST-tagged PRMT1; made in house; host or cells: High Five insect cells (baculovirus)
Description: PRMT1 Biochemical Assay (3H-SAM Flashplate, peptide substrate). As to conditions: single experiment or average of multiple experiments. The method in brief: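 GST-tagged PRMT1 from baculovirus-infected cells, preincubated with compounds 30 min at room temperature in 20 mM Bicine pH 7.6, 1 mM TCEP, 0.005% BSG, 0.002% Tween 20. Reaction started with ³H-SAM plus biotinylated peptide, stopped with 300 µM cold SAM.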

Another experiment has as its target human PRMT3 (Homo sapiens, UniProt O60678). The experiment in a line: PRMT3 Biochemical Assay (3H-SAM Flashplate, peptide substrate). To be noted: single experiment or average of multiple experiments.

T1 sequence (Q99873 with tags, fused parts or gaps): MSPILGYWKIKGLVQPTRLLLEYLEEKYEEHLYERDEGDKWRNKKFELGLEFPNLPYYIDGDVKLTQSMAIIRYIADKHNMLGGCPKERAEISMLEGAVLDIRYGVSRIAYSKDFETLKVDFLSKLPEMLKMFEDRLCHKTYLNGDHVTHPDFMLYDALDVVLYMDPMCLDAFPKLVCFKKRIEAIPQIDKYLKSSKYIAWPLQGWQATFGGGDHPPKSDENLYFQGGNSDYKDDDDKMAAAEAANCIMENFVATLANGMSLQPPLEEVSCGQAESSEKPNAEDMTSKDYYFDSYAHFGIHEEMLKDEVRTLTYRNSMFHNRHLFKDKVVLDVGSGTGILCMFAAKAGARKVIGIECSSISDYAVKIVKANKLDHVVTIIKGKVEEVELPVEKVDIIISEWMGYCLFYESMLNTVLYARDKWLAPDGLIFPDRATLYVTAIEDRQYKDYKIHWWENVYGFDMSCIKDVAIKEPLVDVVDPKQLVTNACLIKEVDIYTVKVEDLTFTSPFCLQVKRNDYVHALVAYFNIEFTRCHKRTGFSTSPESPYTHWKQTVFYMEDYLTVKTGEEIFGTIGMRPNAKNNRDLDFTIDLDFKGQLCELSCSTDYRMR
Chain of human PRMT3 (O60678 with tags, fused parts or gaps): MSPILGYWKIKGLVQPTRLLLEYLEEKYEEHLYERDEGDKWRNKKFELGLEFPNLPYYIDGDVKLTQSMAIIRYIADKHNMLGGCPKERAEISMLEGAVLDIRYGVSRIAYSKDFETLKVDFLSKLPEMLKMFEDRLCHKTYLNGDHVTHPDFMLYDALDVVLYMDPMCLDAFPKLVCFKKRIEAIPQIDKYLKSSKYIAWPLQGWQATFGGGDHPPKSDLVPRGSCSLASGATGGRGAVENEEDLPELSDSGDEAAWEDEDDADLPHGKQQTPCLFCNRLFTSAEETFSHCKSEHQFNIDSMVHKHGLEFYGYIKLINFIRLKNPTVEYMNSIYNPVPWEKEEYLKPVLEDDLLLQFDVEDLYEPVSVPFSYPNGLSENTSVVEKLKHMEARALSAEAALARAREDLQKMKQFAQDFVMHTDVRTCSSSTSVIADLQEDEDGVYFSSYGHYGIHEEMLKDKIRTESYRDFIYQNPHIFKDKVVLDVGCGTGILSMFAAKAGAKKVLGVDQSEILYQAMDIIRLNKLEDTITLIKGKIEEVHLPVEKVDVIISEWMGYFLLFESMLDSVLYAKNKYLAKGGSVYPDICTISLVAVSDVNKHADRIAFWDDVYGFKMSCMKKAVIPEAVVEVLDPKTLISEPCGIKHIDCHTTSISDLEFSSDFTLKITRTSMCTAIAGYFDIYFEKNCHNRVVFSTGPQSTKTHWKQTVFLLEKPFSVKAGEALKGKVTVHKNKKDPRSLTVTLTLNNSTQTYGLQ

By IC50 is commonly meant the concentration that gives 50% inhibition. A low value points to higher potency. Turning to `Cc1ccc(-c2n[nH]cc2CN(C)CCN)c(C)c1` [Compound 88], the IC50 against human PRMT1 was found to be 128 nM; at human PRMT3 it was 8080 nM.
Turning to `CN(CCN)Cc1c[nH]nc1-c1ccccc1F` [Compound 72], at human PRMT1, the IC50 came out at 278 nM.
With `CN(CCN)Cc1c[nH]nc1-c1ccc(F)cc1` [Compound 1], half-maximal inhibition on human PRMT3 (IC50) required 2650 nM.
`CN(CCN)Cc1c[nH]nc1-c1ccc(C(C)(C)C)cc1` [Compound 74] showed an IC50 against human PRMT1 of 14.9 nM.
As to `CN(CCN)Cc1cn(C2COC2)nc1-c1ccc(F)cc1` [Compound 77], the figures for the IC50 at human PRMT1 and against human PRMT3 were 215 nM and 6290 nM, respectively.
For the compound `CN(CCN)Cc1c[nH]nc1-c1cccc(F)c1` [Compound 71], it took 18.8 nM to reach half-maximal inhibition on human PRMT1 (IC50).
Take `Cc1ccc(-c2n[nH]cc2CN(C)CCN)c(Cl)c1` [Compound 90]: the IC50 is 41.3 nM against human PRMT1 and 6970 nM at human PRMT3.
The like results for `CN(CCN)Cc1c[nH]nc1-c1ccc(Cl)cc1` [Compound 95] were, in that order, 7.84 nM and 2390 nM.
The like results for `CN(CCN)Cc1c[nH]nc1-c1ccc(Cl)cc1Cl` [Compound 86] were, in that order, 24 nM and 5820 nM.
`CNCCN(C)Cc1c[nH]nc1-c1cccc(NC(C)=O)c1` [Compound 42] displayed a half-inhibitory concentration (IC50) on human PRMT3 of 2550 nM.
With `CN(CCN)Cc1c[nH]nc1-c1ccc(OC(F)(F)F)cc1` [Compound 93], the results for the IC50 against human PRMT1 and against human PRMT3 were 4.64 nM and 3610 nM, respectively.
As for `CC(C)Oc1ccc(-c2n[nH]cc2CN(C)CCN)cc1Cl` [Compound 168], the IC50 against human PRMT3 is 3910 nM.
Take `NCCN(Cc1c[nH]nc1-c1ccc(F)cc1)C1CC1` [Compound 78]: the IC50 at human PRMT1 stood at 328 nM. In other words, the sub-micromolar range.
Regarding `CN(CCN)Cc1c[nH]nc1-c1ccccc1` [Compound 73], it took 126 nM to reach half-maximal inhibition on human PRMT1 (IC50).
Same read-out and setting: to `CN(CCN)Cc1c[nH]nc1-c1cccc(C#N)c1` [Compound 70] belongs 200 nM.
As to `CN(CCN)Cc1cn(C)nc1-c1ccc(F)cc1` [Compound 3], the IC50 came out at 58.1 nM against human PRMT1 and 25500 nM against human PRMT3.
As for `COc1ccc(-c2n[nH]cc2CN(C)CCN)c(OC)c1` [Compound 87], half-maximal inhibition at human PRMT1 (IC50) was put at 172 nM.
As for `CN(CCN)Cc1c[nH]nc1-c1ccc(C(F)(F)F)cc1` [Compound 92], the results for the IC50 against human PRMT1 and at human PRMT3 were 5.69 nM and 3140 nM, respectively.
For `CC(C)Oc1ccc(-c2n[nH]cc2CN(C)CCN)cc1` [Compound 67], on human PRMT3, it took 4580 nM to reach half-maximal inhibition (IC50). This counts as single-digit micromolar.
With `CNCCN(C)Cc1c[nH]nc1-c1cccc(N)c1` [Compound 32], the half-inhibitory concentration (IC50) against human PRMT3 was determined as 2760 nM.
Take `CN(CCN)Cc1cnn(C2COC2)c1-c1ccc(F)cc1` [Compound 81]: the IC50 against human PRMT1 is 435 nM.
The same measure, in the same setting: to `CC(C)N(CCN)Cc1c[nH]nc1-c1ccc(F)cc1` [Compound 75] belongs 616 nM; to `CN(CCN)Cc1n[nH]cc1-c1ccc(F)cc1` [Compound 69], 51.1 nM.
`CNCCN(C)Cc1cnn(C)c1-c1ccc(F)cc1` [Compound 10]: the IC50 against human PRMT3 stood at 13400 nM.
On the same count and under the same terms, with `CCN(CCNC)Cc1c[nH]nc1-c1ccc(F)cc1` [Compound 9] the figure was 3160 nM.
At human PRMT1, `CN(CCN)Cc1cnn(C)c1-c1ccc(F)cc1` [Compound 4] yielded an IC50 of 152 nM.
With `CNCCN(C)Cc1c[nH]nc1-c1ccc(-c2ccccc2)cc1` [Compound 47], the IC50 on human PRMT3 is 530 nM.
`CNCCN(C)Cc1c[nH]nc1-c1cccc(C(C)=O)c1` [Compound 44]: on human PRMT3, half-maximal inhibition (IC50) required 3440 nM.
On human PRMT1, `COCCn1cc(CN(C)CCN)c(-c2ccc(F)cc2)n1` [Compound 5] gave an IC50 of 1190 nM.
Still for that read-out and setting: with `CN(CCN)Cc1nn(C)cc1-c1ccc(C#N)cc1` [Compound 83] the figure was 30.3 nM.
In turn, `CN(CCN)Cc1c[nH]nc1-c1ccc(C(F)(F)F)cc1C(F)(F)F` [Compound 85] yielded an IC50 against human PRMT1 of 234 nM. This IC50 lies about 7.7-fold higher than the previous one.
On the same count and under the same terms, to `Cc1ccc(Cl)c(-c2n[nH]cc2CN(C)CCN)c1` [Compound 91] belongs 272 nM.
As for `CN(CCN)Cc1c[nH]nc1-c1ccc(F)cc1Cl` [Compound 89], the IC50 on human PRMT1 was found to be 67.4 nM; against human PRMT3 it was 9560 nM.
Regarding `CNCCN(C)Cc1cnn(CC2CCOCC2)c1-c1ccc(F)cc1` [Compound 12], at human PRMT3, the half-maximal inhibitory concentration (IC50) is greater than 50000 nM.
Consider `CN(CCN)Cc1c[nH]nc1-c1ccc(N2CCNCC2)cc1` [Compound 82], for which the half-maximal inhibitory concentration (IC50) at human PRMT1 came to 96.1 nM; on human PRMT3, 1590 nM.
The like results for `CN(CCN)Cc1c[nH]nc1-c1ccc(OC(F)F)cc1` [Compound 94] were, in that order, 7.97 nM and 5370 nM.
